Results reported in patent US9765087B2, “Benzimidazole derivatives” (ENANTA PHARMACEUTICALS, INC., priority 2009, dated 2017).
Read-outs that look alike come from different tables or passages of the source.

Key:
HCV 1b genotype replicon = assay: HCV replicon assay (qRT-PCR or luciferase), genotype 1b; format: cell-based; conditions: Hepatitis C virus
How it was run: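 Genotype 1b subgenomic replicon Huh-luc/neo-ET cells (7,000/well) treated with compound for 72 h at 37 °C, 0.2% DMSO final; replication read by firefly luciferase. EC50 alternatively from qRT-PCR of HCV RNA normalized to GAPDH; cytotoxicity by MTS.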

HCV 1a genotype replicon = assay: HCV replicon assay (qRT-PCR or luciferase), genotype 1a; format: cell-based; conditions: Hepatitis C virus
Protocol: HCV replicon cell lines (kindly provided by R. Bartenschlager) isolated from colonies as described by Lohman et. al. (Lohman et al. (1999) Science 285: 110-113, expressly incorporated by reference in its entirety) and used for all experiments. The HCV replicon has the nucleic acid sequence set forth in EMBL Accession No.: AJ242651, the coding sequence of which is from nucleotides 1801 to 8406.
These cell lines were maintained at 37° C., 5% CO2, 100% relative humidity in DMEM (Cat#11965-084, Invitrogen), with 10% fetal calf serum (“FCS”, Invitrogen), 1% non-essential amino acids (Invitrogen), 1% of Glutamax (Invitrogen), 1% of 100× penicillin/streptomycin (Cat#15140-122, Invitrogen) and Geneticin (Cat#10131-027, Invitrogen) at 0.75 mg/ml or 0.5 mg/ml for 11-7 and Huh-luc/neo-ET cells, respectively.
EC50 values of single agent compounds and combinations were determined by HCV RNA detection using quantitative RT-PCR, according to the manufacturer's instructions, with a TAQMAN® One-Step RT-PCR Master Mix Reagents Kit (Cat#AB 4309169, Applied Biosystems) on an ABI Model 7500 thermocycler. The TaqMan primers used for detecting and quantifying HCV RNA were obtained from Integrated DNA Technologies. HCV RNA was normalized to GAPDH RNA levels in drug-treated cells, which is detected and quantified using the Human GAPDH Endogenous Control Mix (Applied Biosystems, AB 4310884E). Total cellular RNA is purified from 96-well plates using the RNAqueous 96 kit (Ambion, Cat# AM1812). Chemical agent cytotoxicity is evaluated using an MTS assay according to the manufacturer's directions (Promega).
Since clinical drug resistance often develops in viral infections following single agent therapies, there is a need to assess the additive, antagonistic, or synergistic properties of combination therapies. We used the HCV replicon system to assess the potential use of the compound of the present invention or in combination therapies with Interferon alpha, cyclosporine analogs and inhibitors targeting other HCV proteins. The acute effects of a single or combinations of drugs are studied in the “Huh-luc/neo-ET” replicon with each chemical agent titrated in an X or Y direction in a 6 point two-fold dilution curve centered around the EC50 of each drug. Briefly, replicon cells are seeded at 7,000 cells per well in 90 ul DMEM (without phenol red, Invitrogen Cat.#31053-036) per well with 10% FCS, 1% non-essential amino acids, 1% of Glutamax and 1% of 100× penicillin/streptomycin and incubated overnight at 37° C., 5% CO2, 100% relative humidity. 16-20 h after seeding cells, test compounds previously solubilized and titrated in dimethyl sulfoxide (“DMSO”) from each X plate and Y plate are diluted 1:100 in DMEM (without phenol red, Invitrogen Cat.#31053-036) with 10% FCS, 1% non-essential amino acids, 1% of Glutamax and 1% of 100× penicillin/streptomycin and added directly to the 96-well plate containing cells and growth medium at a 1:10 dilution for a final dilution of compound and DMSO of 1:1000 ([…] final concentration). Drug treated cells are incubated at 37° C., 5% CO2, 100% relative humidity for 72 hours before performing a luciferase assay using 100 ul per well BriteLite Plus (Perkin Elmer) according to the manufacturer's instructions. Data analysis utilizes the method published by Prichard and Shipman (Antiviral Research, 1990. 14:181-205). Using this method, the combination data are analyzed for antagonistic, additive, or synergistic combination effects across the entire combination surface created by the diluted compounds in combination.
The compounds of the present invention can be effective against the HCV 1b genotype. It should also be understood that the compounds of the present invention can inhibit multiple genotypes of HCV. In one embodiment compound of the present invention are active against the 1a, 1b, 2a, 2b, 3a, 4a, and 5a genotypes. […] EC50 ranges against HCV 1b and 1a are as follows: A>10 nM; B1-10 nM; C<1 nM.

[1] = Table 12, numeric values, read-out: 1b EC50
[2] = Table 12, range class, read-out: 1a EC50 Range
[3] = Table 12, range class, read-out: 1b EC50 Range

| SMILES | EC50 (HCV 1a genotype replicon; [2]) [nM] | also measured |
| --- | --- | --- |
| COC(=O)N[C@H](C(=O)N1CC2(CC2)C[C@H]1c1nc2ccc(C#Cc3ccc(-c4cnc([C@@H]5CC6(CC6)CN5C(=O)[C@H](NC(=O)OC)c5ccccc5)[nH]4)cc3)cc2[nH]1)C(C)C (stereo in doubt) [Example 647] | < 1 | EC50 (HCV 1b genotype replicon; [1]): 0.008 nM |
| COC(=O)N[C@H](C(=O)N1C[C@]2(CCCO2)C[C@H]1c1nc(-c2ccc(C#Cc3ccc4[nH]c([C@@H]5CC6(CC6)CN5C(=O)[C@@H](NC(=O)OC)C(C)C)nc4c3)cc2)c[nH]1)C(C)C [Example 546] | < 1 | EC50 (HCV 1b genotype replicon; [1]): 0.012 nM |
| COC(=O)N[C@H](C(=O)N1CC2(CC2)C[C@H]1c1nc2ccc(C#Cc3ccc(-c4cnc([C@@H]5CC6(CC6)CN5C(=O)[C@@H](NC(=O)OC)[C@@H](C)OCCF)[nH]4)cc3)cc2[nH]1)C(C)C [Example 547] | < 1 | EC50 (HCV 1b genotype replicon; [1]): 0.018 nM |
| COC(=O)N[C@H](C(=O)N1CCC[C@H]1c1nc(-c2ccc(C#Cc3ccc4[nH]c([C@@H]5C[C@@]6(CCCO6)CN5C(=O)[C@@H](NC(=O)OC)C(C)C)nc4c3)cc2)c[nH]1)C(C)C [Example 551] | < 1 | EC50 (HCV 1b genotype replicon; [1]): 0.013 nM |
| COC(=O)N[C@@H](COC(N)=O)C(=O)N1CCC[C@H]1c1ncc(-c2ccc(C#Cc3ccc4nc([C@@H]5CC6(CC6)CN5C(=O)[C@@H](NC(=O)OC)C(C)C)[nH]c4c3)cc2)[nH]1 [Example 552] | < 1 | EC50 (HCV 1b genotype replicon; [3]): < 1 nM |
| COC(=O)N[C@H](C(=O)N1CC2(CC2)C[C@H]1c1nc(-c2ccc(C#Cc3ccc4[nH]c([C@@H]5C[C@@]6(CCCO6)CN5C(=O)[C@@H](NC(=O)OC)C(C)C)nc4c3)cc2)c[nH]1)C(C)C [Example 555] | < 1 | EC50 (HCV 1b genotype replicon; [1]): 0.007 nM |
| COC(=O)N[C@H](C(=O)N1C[C@@H](OC)C[C@H]1c1nc(-c2ccc(C#Cc3ccc4[nH]c([C@@H]5C[C@@]6(CCCO6)CN5C(=O)[C@@H](NC(=O)OC)C(C)C)nc4c3)cc2)c[nH]1)C(C)C [Example 558] | < 1 | EC50 (HCV 1b genotype replicon; [3]): < 1 nM |
| COC(=O)N[C@H](C(=O)N1C[C@@H](O)C[C@H]1c1nc(-c2ccc(C#Cc3ccc4[nH]c([C@@H]5C[C@@]6(CCCO6)CN5C(=O)[C@@H](NC(=O)OC)C(C)C)nc4c3)cc2)c[nH]1)C(C)C [Example 561] | < 1 | EC50 (HCV 1b genotype replicon; [1]): 0.024 nM |
| COC(=O)N[C@H](C(=O)N1CCC[C@H]1c1nc(-c2ccc(C#Cc3ccc4[nH]c([C@@H]5C[C@]6(CCOC6)CN5C(=O)[C@@H](NC(=O)OC)C(C)C)nc4c3)cc2)c[nH]1)C(C)C [Example 564] | < 1 | EC50 (HCV 1b genotype replicon; [1]): 0.008 nM |
| COC(=O)N[C@H](C(=O)N1CC2(CC2)C[C@H]1c1nc2ccc(C#Cc3ccc(-c4cnc([C@@H]5CCCN5C(=O)[C@H](NC(=O)OC)c5ccc(F)cc5)[nH]4)cc3)cc2[nH]1)C(C)C [Example 664] | < 1 | – |
| COC(=O)N[C@H](C(=O)N1CC2(CC2)C[C@H]1c1nc2ccc(C#Cc3ccc(-c4cnc([C@@H]5CCCN5C(=O)[C@H](NC(=O)OC)c5cccc(Cl)c5)[nH]4)cc3)cc2[nH]1)C(C)C [Example 665] | < 1 | – |
| COC(=O)N[C@H](C(=O)N1CC2(CC2)C[C@H]1c1ncc(-c2ccc(C#Cc3ccc4nc([C@@H]5CC6(CC6)CN5C(=O)[C@H](NC(=O)OC)C5CCCCC5)[nH]c4c3)cc2)[nH]1)C(C)C [Example 667] | 1 to 10 | – |
| COC(=O)N[C@H](C(=O)N1CC2(CC2)C[C@H]1c1ncc(-c2ccc(C#Cc3ccc4nc([C@@H]5CC6(CC6)CN5C(=O)[C@@H](NC(=O)OC)[C@@H](C)c5ccccc5)[nH]c4c3)cc2)[nH]1)C(C)C [Example 668] | < 1 | – |
| COC(=O)N[C@H](C(=O)N1CC2(CC2)C[C@H]1c1ncc(-c2ccc(C#Cc3ccc4nc([C@@H]5CC6(CC6)CN5C(=O)[C@H](NC(=O)OC(C)(C)C)[C@H](C)c5ccccc5)[nH]c4c3)cc2)[nH]1)C(C)C [Example 669] | > 10 | – |
| COCC(COC)[C@H](NC(=O)OC)C(=O)N1CC2(CC2)C[C@H]1c1nc2ccc(C#Cc3ccc(-c4cnc([C@@H]5CC6(CC6)CN5C(=O)[C@@H](NC(=O)OC)C(C)C)[nH]4)cc3)cc2[nH]1 [Example 670] | < 1 | – |
| COC(=O)N[C@H](C(=O)N1CC2(CC2)C[C@H]1c1nc2ccc(C#Cc3ccc(-c4cnc([C@@H]5C[C@@H](C)CN5C(=O)[C@H](NC(=O)OC)c5ccccc5)[nH]4)cc3)cc2[nH]1)C(C)C [Example 671] | < 1 | – |
| CC[C@H](C)[C@H](NC(=O)OC)C(=O)N1CCC[C@H]1c1ncc(-c2ccc(C#Cc3ccc4nc([C@@H]5CC6(CC6)CN5C(=O)[C@@H](NC(=O)OC)C(C)C)[nH]c4c3)cc2)[nH]1 [Example 673] | < 1 | – |
| CC[C@H](C)[C@H](NC(=O)OC)C(=O)N1CC2(CC2)C[C@H]1c1ncc(-c2ccc(C#Cc3ccc4nc([C@@H]5CC6(CC6)CN5C(=O)[C@@H](NC(=O)OC)C(C)C)[nH]c4c3)cc2)[nH]1 [Example 674] | < 1 | – |
| COC(=O)N[C@H](C(=O)N1CC2(CC2)C[C@H]1c1ncc(-c2ccc(C#Cc3ccc4nc([C@@H]5CC6(CC6)CN5C(=O)[C@@H](NC(=O)OC)C5CCCCC5)[nH]c4c3)cc2)[nH]1)C(C)C [Example 675] | < 1 | – |
| COC(=O)N[C@@H](C(=O)N1CC2(CC2)C[C@H]1c1ncc(-c2ccc(C#Cc3ccc4nc([C@@H]5CC6(CC6)CN5C(=O)[C@H](NC(=O)OC)c5cccc(F)c5)[nH]c4c3)cc2)[nH]1)c1cccc(F)c1 [Example 677] | 1 to 10 | – |
| COC(=O)N[C@H](C(=O)N1CC2(CC2)C[C@H]1c1ncc(-c2ccc(C#Cc3ccc4nc([C@@H]5CC6(CC6)CN5C(=O)[C@@H](NC(=O)OC)C5CCCC5)[nH]c4c3)cc2)[nH]1)C(C)C [Example 679] | < 1 | – |
| COC(=O)N[C@@H](C(=O)N1CC2(CC2)C[C@H]1c1ncc(-c2ccc(C#Cc3ccc4nc([C@@H]5CC6(CC6)CN5C(=O)[C@H](NC(=O)OC)c5cccs5)[nH]c4c3)cc2)[nH]1)c1cccs1 [Example 680] | > 10 | – |
| COC(=O)N[C@H](C(=O)N1CC2(CC2)C[C@H]1c1nc2ccc(C#Cc3ccc(-c4cnc([C@@H]5CCCN5C(=O)[C@H](NC(=O)OC)c5ccoc5)[nH]4)cc3)cc2[nH]1)C(C)C [Example 681] | – | EC50 (HCV 1a genotype replicon; Table 12, numeric values, read-out: 1a EC50): 0.202 nM |
| COC(=O)N[C@H](C(=O)N1CC2(CC2)C[C@H]1c1nc2ccc(C#Cc3ccc(-c4cnc([C@@H]5CCCN5C(=O)[C@H](NC(=O)OC)c5ccco5)[nH]4)cc3)cc2[nH]1)C(C)C [Example 682] | < 1 | – |
| COC(=O)N[C@H](C(=O)N1CC2(CC2)C[C@H]1c1nc2ccc(C#Cc3ccc(-c4cnc([C@@H]5C[C@H]6C[C@H]6N5C(=O)[C@H](NC(=O)OC)c5cc(F)cc(F)c5)[nH]4)cc3)cc2[nH]1)C(C)C [Example 683] | < 1 | – |
| COC(=O)N[C@H](C(=O)N1CC2(CC2)C[C@H]1c1nc2ccc(C#Cc3ccc(-c4cnc([C@@H]5C[C@H]6C[C@H]6N5C(=O)[C@H](NC(=O)OC)c5cccc(F)c5)[nH]4)cc3)cc2[nH]1)C(C)C [Example 684] | < 1 | – |
| COC(=O)N[C@H](C(=O)N1C[C@@H]2C[C@@H]2[C@H]1c1nc2cc(C#Cc3ccc(-c4c[nH]c([C@@H]5CCCN5C(=O)[C@@H](NC(=O)OC)C(C)C)n4)cc3)ccc2[nH]1)C(C)C [Example 690] | 1 to 10 | – |
